These results are taken from patent US12522594B2, “2-heteroaryl-3-oxo-2,3-dihydropyridazine-4-carboxamides for the treatment of cancer” (Deutsches Krebsforschungszentrum, priority 2017, dated 2026).

What all share (format): cell-based
Assay [1] concerns the target T1, AHR (Homo sapiens, UniProt P35869).
T1 sequence (P35869 11-848): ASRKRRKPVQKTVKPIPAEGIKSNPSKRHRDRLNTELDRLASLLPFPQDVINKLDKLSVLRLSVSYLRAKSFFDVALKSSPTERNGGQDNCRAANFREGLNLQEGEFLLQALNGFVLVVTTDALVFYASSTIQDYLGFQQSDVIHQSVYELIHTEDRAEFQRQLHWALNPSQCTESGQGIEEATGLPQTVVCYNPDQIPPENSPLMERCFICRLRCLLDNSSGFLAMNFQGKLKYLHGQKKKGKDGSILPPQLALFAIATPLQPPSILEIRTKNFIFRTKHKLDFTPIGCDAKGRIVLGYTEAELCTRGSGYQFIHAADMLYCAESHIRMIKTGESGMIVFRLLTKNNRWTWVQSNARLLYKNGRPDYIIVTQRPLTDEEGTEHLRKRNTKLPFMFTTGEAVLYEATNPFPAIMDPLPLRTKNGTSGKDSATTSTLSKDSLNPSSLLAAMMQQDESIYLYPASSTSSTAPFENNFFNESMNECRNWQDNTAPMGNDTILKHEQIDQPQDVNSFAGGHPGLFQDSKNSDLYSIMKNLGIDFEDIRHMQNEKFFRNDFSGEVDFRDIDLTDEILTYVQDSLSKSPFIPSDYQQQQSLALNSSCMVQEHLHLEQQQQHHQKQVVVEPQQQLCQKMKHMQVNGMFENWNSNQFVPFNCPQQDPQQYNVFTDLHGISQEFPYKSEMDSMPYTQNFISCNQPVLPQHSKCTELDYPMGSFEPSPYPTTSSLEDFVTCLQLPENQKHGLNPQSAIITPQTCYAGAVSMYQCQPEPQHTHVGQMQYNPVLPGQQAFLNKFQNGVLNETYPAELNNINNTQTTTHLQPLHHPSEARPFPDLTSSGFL
The assay can be described thus: In vitro assay 2: agonism in human cell line (transactivation assay, U87 cells, DRE firefly luciferase reporter). Set-up: host or cells: U87 glioblastoma cells, stably transfected with DRE firefly luciferase and renilla reporter constructs. The note with it: no kynurenic acid, 20 hours, read-out: Assay 2: AHR-luc Hum Agonism IC50. In short, it runs like this: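 U87 glioblastoma cells with endogenous AHR, stably carrying DRE-driven firefly luciferase and constitutive renilla reporters. 300 uM kynurenic acid served as positive activation control; data normalized to positive and negative controls.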

The target of assay [2] is T1, AHR. The assay can be described thus: In vitro assay 1: antagonism in human cell line (transactivation assay, U87 cells prestimulated with kynurenic acid, DRE firefly luciferase reporter). Set-up: host or cells: U87 glioblastoma cells, stably transfected with DRE firefly luciferase and renilla reporter constructs. Particulars: 150 uM kynurenic acid, 20 hours, read-out: Assay 1: AHR-luc Hum Antagonism IC50. The essentials:
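U87 glioblastoma cells with endogenous AHR, stably carrying a DRE-driven firefly luciferase reporter and a constitutive renilla reporter. Cells prestimulated with the AHR agonist kynurenic acid before compound addition; data normalized to positive and negative controls.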

For assay [3], the target named is T1, AHR. As to the kind of experiment: In vitro assay 3: AHR-regulated CYP1A1 expression in human cell line (U937, qPCR, KA stimulation). Particulars: U937 cells, 200 uM KA, 6 hours, CYP1A1 expression by qPCR; read-out: Assay 3: Hum CYP1A1 Antagonism IC50. The protocol:
In Vitro Assay 3: AHR-Regulated CYP1A1 Expression in Human Cell Line
To assess the AHR inhibitory activity of the substances described in this application, the ability thereof to antagonise ligand-induced AHR gene regulation in a dose-dependent manner was quantified. For this purpose, quantitative PCR analysis was used to determine expression of the AHR-regulated gene CYP1A1 in a human monocytic U937 cell line upon stimulation with 200 uM KA in the presence and absence of AHR inhibitor. […] CYP1A1 expression was induced with 200 uM KA (positive control) in the presence or absence of the substances for 6 hours. Human U937 cells were typically incubated with eight different concentrations of the substances (1 nM, 3 nM, 10 nM, 30 nM, 100 nM, 300 nM, 1 uM and 3 uM) and analyzed in duplicate on the same microtitre plate. […] Unstimulated cells were used as the negative control. Taqman probes for human CYP1A1 (Hs01054797_g1) and human HPRT (Hs02800695_m1) were used to analyze fold expression of CYP1A1 of HPRT. Quantitation was performed on a Taqman SDS7900HT.

Take `O=C(N[C@H]1CCCC[C@H]1O)c1cc(-c2ccc(Cl)cc2)nn(-c2cccnc2)c1=O` [Example 125, 6-(4-Chlorophenyl)-N-[(1S,2R)-2-hydroxycyclohexyl]-3-oxo-2-(pyridin-3-yl)-2,3-dihydropyridazine-4-carboxamide]: the IC50 in assay [1] was over 20 µM; in assay [2], 0.00382 µM; in assay [3], 0.0044 µM.
As to `CC(C)(O)C(NC(=O)c1cc(-c2ccc(C(F)(F)F)cc2)nn(-c2cccnc2)c1=O)C(F)(F)F` (single isomer, unassigned; (-)) [Example 241, (−)-3-Oxo-2-(pyridin-3-yl)-N-(1,1,1-trifluoro-3-hydroxy-3-methylbutan-2-yl)-6-[4-(trifluoromethyl)phenyl]-2,3-dihydropyridazine-4-carboxamide], the figures for the IC50 in assay [1], in assay [2] and in assay [3] were over 20 µM, 0.0109 µM and 0.0363 µM, respectively.
As for `Cn1cc(-n2nc(-c3ccc(C(F)(F)F)cc3)cc(C(=O)N[C@H]3CCC[C@H]3O)c2=O)cn1` [Example 204, N-[(1S,2R)-2-Hydroxycyclopentyl]-2-(1-methyl-1H-pyrazol-4-yl)-3-oxo-6-[4-(trifluoromethyl)phenyl]-2,3-dihydropyridazine-4-carboxamide], the IC50 in assay [1] was over 20 µM; in assay [2], 0.001 µM; in assay [3], 0.00155 µM.
The corresponding values for `Cn1cc(-n2nc(-c3ccc(Cl)cc3)cc(C(=O)N[C@H]3CCC[C@@H]3O)c2=O)cn1` [Example 49, 6-(4-Chlorophenyl)-N-[(1S,2S)-2-hydroxycyclopentyl]-2-(1-methyl-1H-pyrazol-4-yl)-3-oxo-2,3-dihydropyridazine-4-carboxamide] are over 20 µM, 0.0065 µM and 0.00755 µM.
Regarding `Cn1cc(-n2nc(-c3ccc(Cl)cc3)cc(C(=O)N[C@H]3COCC[C@H]3O)c2=O)cn1` [Example 61, 1,5-Anhydro-2-({[6-(4-chlorophenyl)-2-(1-methyl-1H-pyrazol-4-yl)-3-oxo-2,3-dihydropyridazin-4-yl]carbonyl}amino)-2,4-dideoxy-D-erythro-pentitol], the IC50 in assay [1] was over 20 µM; in assay [2], 0.0284 µM; in assay [3] it was 0.0389 µM.
For `C[C@@H](CO)NC(=O)c1cc(-c2ccc(C(F)F)cc2)nn(-c2cnn(C)c2)c1=O` [Example 58, 6-[4-(Difluoromethyl)phenyl]-N-[(2S)-1-hydroxypropan-2-yl]-2-(1-methyl-1H-pyrazol-4-yl)-3-oxo-2,3-dihydropyridazine-4-carboxamide], in that order: over 20 µM, 0.0186 µM and 0.0108 µM.
For `O=C(NCC(O)C(F)(F)F)c1cc(-c2ccc(Cl)cc2)nn(-c2cccnc2)c1=O` (single isomer, unassigned; (+)) [Example 90, (+)-6-(4-Chlorophenyl)-3-oxo-2-(pyridin-3-yl)-N-(3,3,3-trifluoro-2-hydroxypropyl)-2,3-dihydropyridazine-4-carboxamide], in that order: over 20 µM, 0.0217 µM and 0.0402 µM.
As to `O=C(NC[C@@H](O)CO)c1cc(-c2ccc(Cl)cc2)nn(-c2cccnc2)c1=O` [Example 73, (+)-6-(4-Chlorophenyl)-N-[(2R)-2,3-dihydroxypropyl]-3-oxo-2-(pyridin-3-yl)-2,3-dihydropyridazine-4-carboxamide], the results for the concentration for half-maximal inhibition (IC50) in assay [1], in assay [2] and in assay [3] were over 20 µM, 0.283 µM and 0.355 µM, respectively.
For `Cn1cc(-n2nc(-c3ccc(C(F)F)cc3)cc(C(=O)NCC(C)(C)O)c2=O)cn1` [Example 62, 6-[4-(Difluoromethyl)phenyl]-N-(2-hydroxy-2-methylpropyl)-2-(1-methyl-1H-pyrazol-4-yl)-3-oxo-2,3-dihydropyridazine-4-carboxamide], in that order: over 20 µM, 0.0295 µM and 0.0191 µM.
Turning to `C[C@@H](CO)NC(=O)c1cc(-c2ccc(C(F)(F)F)cc2)nn(-c2cccnc2)c1=O` [Example 119, N-[(2S)-1-Hydroxypropan-2-yl]-3-oxo-2-(pyridin-3-yl)-6-[4-(trifluoromethyl)phenyl]-2,3-dihydropyridazine-4-carboxamide], the IC50 in assay [1] was over 20 µM; in assay [2] it was 0.00306 µM; in assay [3], 0.00572 µM.
Regarding `C[C@@H](CO)NC(=O)c1cc(-c2ccc(Cl)cc2)nn(-c2ccc(F)s2)c1=O` [Example 220, 6-(4-Chlorophenyl)-2-(5-fluoro-2-thienyl)-N-[(2S)-1-hydroxypropan-2-yl]-3-oxo-2,3-dihydropyridazine-4-carboxamide], the IC50 in assay [1] was over 20 µM; in assay [2], 0.00336 µM; in assay [3], 0.00196 µM.
For the compound `O=C(NCC(O)C(F)(F)F)c1cc(-c2ccc(Cl)cc2)nn(-c2cccnc2)c1=O` (single isomer, unassigned; (-)) [Example 89, (−)-6-(4-Chlorophenyl)-3-oxo-2-(pyridin-3-yl)-N-(3,3,3-trifluoro-2-hydroxypropyl)-2,3-dihydropyridazine-4-carboxamide], the IC50 was over 20 µM in assay [1], 0.0048 µM in assay [2] and 0.00264 µM in assay [3].
The corresponding values for `Cc1ccc(-c2cc(C(=O)NC(CO)C(C)C)c(=O)n(-c3cnn(C)c3)n2)cc1` (single isomer, unassigned) [Example 2, N-(1-Hydroxy-3-methylbutan-2-yl)-6-(4-methylphenyl)-2-(1-methyl-1H-pyrazol-4-yl)-3-oxo-2,3-dihydropyridazine-4-carboxamide] are over 20 µM, 0.00257 µM and 0.00303 µM.
`Cc1ccc(-c2cc(C(=O)NC(CO)C(C)C)c(=O)n(-c3cnn(C)c3)n2)cc1` (stereo not drawn) [Example 1, N-(1-Hydroxy-3-methylbutan-2-yl)-6-(4-methylphenyl)-2-(1-methyl-1H-pyrazol-4-yl)-3-oxo-2,3-dihydropyridazine-4-carboxamide]: the IC50 in assay [1] is over 20 µM; in assay [2], 0.00738 µM; in assay [3], 0.0043 µM.
For `Cc1ccc(-c2cc(C(=O)NCC(O)C(F)(F)F)c(=O)n(-c3cnn(C)c3)n2)cc1` (single isomer, unassigned; enantiomer 1) [Example 11, (−)-6-(4-Methylphenyl)-2-(1-methyl-1H-pyrazol-4-yl)-3-oxo-N-(3,3,3-trifluoro-2-hydroxypropyl)-2,3-dihydropyridazine-4-carboxamide, Enantiomer 1], in that order: over 20 µM, 0.00455 µM and 0.00015 µM.
Consider `Cc1ccc(-c2cc(C(=O)NCC(O)C(F)F)c(=O)n(-c3cnn(C)c3)n2)cc1` (single isomer, unassigned; enantiomer 2) [Example 15, N-(3,3-Difluoro-2-hydroxypropyl)-6-(4-methylphenyl)-2-(1-methyl-1H-pyrazol-4-yl)-3-oxo-2,3-dihydropyridazine-4-carboxamide, Enantiomer 2], for which the IC50 in assay [1] is over 20 µM; in assay [2], 0.0265 µM; in assay [3], 0.122 µM.
